{"source": "the NIST ThermoML archive (doi:10.1016/j.fluid.2015.09.010)", "assay": "xn = mol fraction of the nth substance listed", "settings": "Gas, single sinker densimeter", "note": "Numbers after ± are expanded uncertainties.", "data": [{"smiles": "F/C=C/C(F)(F)F", "note": "[trans-1,3,3,3-tetrafluoropropene] + CCC", "values": [{"measurement": "mass density", "setting": "283.19 K, 198.03 kPa, x1 = 0.168", "result": "4.884 ± 0.011", "unit": "kg/m3"}, {"measurement": "mass density", "setting": "283.19 K, 220.83 kPa, x1 = 0.5076", "result": "7.8406 ± 0.016", "unit": "kg/m3"}, {"measurement": "mass density", "setting": "283.19 K, 312.57 kPa, x1 = 0.168", "result": "7.9025 ± 0.013", "unit": "kg/m3"}, {"measurement": "mass density", "setting": "283.19 K, 369.65 kPa, x1 = 0.5076", "result": "13.6268 ± 0.018", "unit": "kg/m3"}, {"measurement": "mass density", "setting": "283.19 K, 411.95 kPa, x1 = 0.168", "result": "10.6601 ± 0.015", "unit": "kg/m3"}, {"measurement": "mass density", "setting": "283.19 K, 498.32 kPa, x1 = 0.5076", "result": "19.0511 ± 0.02", "unit": "kg/m3"}, {"measurement": "mass density", "setting": "283.19 K, 515.38 kPa, x1 = 0.168", "result": "13.6875 ± 0.018", "unit": "kg/m3"}, {"measurement": "mass density", "setting": "283.19 K, 612.31 kPa, x1 = 0.168", "result": "16.7013 ± 0.018", "unit": "kg/m3"}, {"measurement": "mass density", "setting": "283.2 K, 100.73 kPa, x1 = 0.679", "result": "4.0148 ± 0.017", "unit": "kg/m3"}, {"measurement": "mass density", "setting": "283.2 K, 101.73 kPa, x1 = 0.5076", "result": "3.5184 ± 0.015", "unit": "kg/m3"}, {"measurement": "mass density", "setting": "283.2 K, 202.42 kPa, x1 = 0.679", "result": "8.2655 ± 0.018", "unit": "kg/m3"}, {"measurement": "mass density", "setting": "283.2 K, 307.97 kPa, x1 = 0.679", "result": "12.9389 ± 0.02", "unit": "kg/m3"}, {"measurement": "mass density", "setting": "283.21 K, 409.61 kPa, x1 = 0.679", "result": "17.7339 ± 0.021", "unit": "kg/m3"}, {"measurement": "mass density", "setting": "283.23 K, 209.78 kPa, x1 = 0.8949", "result": "10.0762 ± 0.021", "unit": "kg/m3"}, {"measurement": "mass density", "setting": "283.23 K, 328.84 kPa, x1 = 0.8949", "result": "16.4078 ± 0.023", "unit": "kg/m3"}, {"measurement": "mass density", "setting": "283.24 K, 102.25 kPa, x1 = 0.8949", "result": "4.7652 ± 0.02", "unit": "kg/m3"}, {"measurement": "mass density", "setting": "288.24 K, 101.08 kPa, x1 = 0.3426", "result": "2.9277 ± 0.013", "unit": "kg/m3"}, {"measurement": "mass density", "setting": "288.24 K, 229.6 kPa, x1 = 0.3426", "result": "6.8193 ± 0.013", "unit": "kg/m3"}, {"measurement": "mass density", "setting": "288.25 K, 344.87 kPa, x1 = 0.3426", "result": "10.4999 ± 0.015", "unit": "kg/m3"}, {"measurement": "mass density", "setting": "288.25 K, 452.7 kPa, x1 = 0.3426", "result": "14.1363 ± 0.017", "unit": "kg/m3"}, {"measurement": "mass density", "setting": "288.25 K, 583.57 kPa, x1 = 0.3426", "result": "18.8469 ± 0.02", "unit": "kg/m3"}, {"measurement": "mass density", "setting": "288.25 K, 689.73 kPa, x1 = 0.3426", "result": "22.9563 ± 0.022", "unit": "kg/m3"}, {"measurement": "mass density", "setting": "288.26 K, 595.72 kPa, x1 = 0.168", "result": "15.7412 ± 0.017", "unit": "kg/m3"}, {"measurement": "mass density", "setting": "288.26 K, 711.04 kPa, x1 = 0.168", "result": "19.385 ± 0.02", "unit": "kg/m3"}, {"measurement": "mass density", "setting": "288.27 K, 213.38 kPa, x1 = 0.168", "result": "5.1751 ± 0.011", "unit": "kg/m3"}, {"measurement": "mass density", "setting": "288.27 K, 334.82 kPa, x1 = 0.168", "result": "8.3244 ± 0.013", "unit": "kg/m3"}, {"measurement": "mass density", "setting": "288.27 K, 445.46 kPa, x1 = 0.168", "result": "11.3478 ± 0.015", "unit": "kg/m3"}, {"measurement": "mass density", "setting": "288.28 K, 101.56 kPa, x1 = 0.168", "result": "2.4124 ± 0.01", "unit": "kg/m3"}, {"measurement": "mass density", "setting": "288.29 K, 101.07 kPa, x1 = 0.5076", "result": "3.4268 ± 0.015", "unit": "kg/m3"}, {"measurement": "mass density", "setting": "288.29 K, 220.99 kPa, x1 = 0.5076", "result": "7.6809 ± 0.015", "unit": "kg/m3"}, {"measurement": "mass density", "setting": "288.29 K, 444.05 kPa, x1 = 0.5076", "result": "16.2865 ± 0.019", "unit": "kg/m3"}, {"measurement": "mass density", "setting": "288.29 K, 578.73 kPa, x1 = 0.5076", "result": "22.0366 ± 0.022", "unit": "kg/m3"}, {"measurement": "mass density", "setting": "288.3 K, 101.4 kPa, x1 = 0.679", "result": "3.9663 ± 0.017", "unit": "kg/m3"}, {"measurement": "mass density", "setting": "288.3 K, 227.2 kPa, x1 = 0.679", "result": "9.1436 ± 0.018", "unit": "kg/m3"}, {"measurement": "mass density", "setting": "288.3 K, 333.95 kPa, x1 = 0.5076", "result": "11.9154 ± 0.017", "unit": "kg/m3"}, {"measurement": "mass density", "setting": "288.31 K, 348.56 kPa, x1 = 0.679", "result": "14.4714 ± 0.02", "unit": "kg/m3"}, {"measurement": "mass density", "setting": "288.31 K, 484.09 kPa, x1 = 0.679", "result": "20.8941 ± 0.022", "unit": "kg/m3"}, {"measurement": "mass density", "setting": "288.32 K, 385.31 kPa, x1 = 0.8949", "result": "19.104 ± 0.023", "unit": "kg/m3"}, {"measurement": "mass density", "setting": "288.34 K, 101.12 kPa, x1 = 0.8949", "result": "4.6234 ± 0.02", "unit": "kg/m3"}, {"measurement": "mass density", "setting": "288.34 K, 236.83 kPa, x1 = 0.8949", "result": "11.2187 ± 0.021", "unit": "kg/m3"}, {"measurement": "mass density", "setting": "293.25 K, 588.13 kPa, x1 = 0.3426", "result": "18.534 ± 0.019", "unit": "kg/m3"}, {"measurement": "mass density", "setting": "293.25 K, 709.61 kPa, x1 = 0.3426", "result": "23.0845 ± 0.022", "unit": "kg/m3"}, {"measurement": "mass density", "setting": "293.26 K, 208.73 kPa, x1 = 0.3426", "result": "6.0545 ± 0.013", "unit": "kg/m3"}, {"measurement": "mass density", "setting": "293.26 K, 452.62 kPa, x1 = 0.3426", "result": "13.8135 ± 0.016", "unit": "kg/m3"}, {"measurement": "mass density", "setting": "293.27 K, 101.3 kPa, x1 = 0.3426", "result": "2.8816 ± 0.012", "unit": "kg/m3"}, {"measurement": "mass density", "setting": "293.27 K, 329.2 kPa, x1 = 0.3426", "result": "9.782 ± 0.014", "unit": "kg/m3"}, {"measurement": "mass density", "setting": "293.28 K, 208.37 kPa, x1 = 0.5076", "result": "7.0836 ± 0.015", "unit": "kg/m3"}, {"measurement": "mass density", "setting": "293.28 K, 290.55 kPa, x1 = 0.168", "result": "7.0037 ± 0.012", "unit": "kg/m3"}, {"measurement": "mass density", "setting": "293.28 K, 407.44 kPa, x1 = 0.168", "result": "10.0558 ± 0.014", "unit": "kg/m3"}, {"measurement": "mass density", "setting": "293.29 K, 98.9 kPa, x1 = 0.5076", "result": "3.2914 ± 0.014", "unit": "kg/m3"}, {"measurement": "mass density", "setting": "293.29 K, 100.13 kPa, x1 = 0.168", "result": "2.3324 ± 0.01", "unit": "kg/m3"}, {"measurement": "mass density", "setting": "293.29 K, 198.29 kPa, x1 = 0.168", "result": "4.6983 ± 0.011", "unit": "kg/m3"}, {"measurement": "mass density", "setting": "293.29 K, 317.13 kPa, x1 = 0.5076", "result": "11.031 ± 0.017", "unit": "kg/m3"}, {"measurement": "mass density", "setting": "293.29 K, 429.96 kPa, x1 = 0.5076", "result": "15.3484 ± 0.018", "unit": "kg/m3"}, {"measurement": "mass density", "setting": "293.29 K, 515.52 kPa, x1 = 0.168", "result": "13.0247 ± 0.015", "unit": "kg/m3"}, {"measurement": "mass density", "setting": "293.29 K, 530.45 kPa, x1 = 0.5076", "result": "19.4174 ± 0.021", "unit": "kg/m3"}, {"measurement": "mass density", "setting": "293.29 K, 612.66 kPa, x1 = 0.168", "result": "15.8319 ± 0.017", "unit": "kg/m3"}, {"measurement": "mass density", "setting": "293.29 K, 715.58 kPa, x1 = 0.168", "result": "18.9724 ± 0.02", "unit": "kg/m3"}, {"measurement": "mass density", "setting": "293.29 K, 825.52 kPa, x1 = 0.168", "result": "22.5539 ± 0.02", "unit": "kg/m3"}, {"measurement": "mass density", "setting": "293.3 K, 210.11 kPa, x1 = 0.679", "result": "8.2494 ± 0.017", "unit": "kg/m3"}, {"measurement": "mass density", "setting": "293.3 K, 641.29 kPa, x1 = 0.5076", "result": "24.1912 ± 0.022", "unit": "kg/m3"}, {"measurement": "mass density", "setting": "293.31 K, 101.19 kPa, x1 = 0.679", "result": "3.8833 ± 0.016", "unit": "kg/m3"}, {"measurement": "mass density", "setting": "293.31 K, 324.6 kPa, x1 = 0.679", "result": "13.0914 ± 0.019", "unit": "kg/m3"}, {"measurement": "mass density", "setting": "293.32 K, 432.86 kPa, x1 = 0.679", "result": "17.9448 ± 0.021", "unit": "kg/m3"}, {"measurement": "mass density", "setting": "293.32 K, 546.41 kPa, x1 = 0.679", "result": "23.3906 ± 0.023", "unit": "kg/m3"}, {"measurement": "mass density", "setting": "293.34 K, 454.67 kPa, x1 = 0.8949", "result": "22.4737 ± 0.024", "unit": "kg/m3"}, {"measurement": "mass density", "setting": "293.35 K, 100.25 kPa, x1 = 0.8949", "result": "4.4951 ± 0.019", "unit": "kg/m3"}, {"measurement": "mass density", "setting": "293.35 K, 226.08 kPa, x1 = 0.8949", "result": "10.452 ± 0.02", "unit": "kg/m3"}, {"measurement": "mass density", "setting": "293.35 K, 345.6 kPa, x1 = 0.8949", "result": "16.5159 ± 0.022", "unit": "kg/m3"}]}]}
